Counter-ions that a name gives are not always drawn. Like-named read-outs stand apart in the source and are kept apart here.
System: Plasmodium falciparum 3D7 strain
Test: P. falciparum 3D7 asexual blood stage assay (SYBR green readout)
Type: cell-based
Details: Plasmodium falciparum
Procedure: Asexual Blood Stage Assay
The assay used to measure the effect of test compounds on a bloodstream stage of Plasmodium falciparum: 3D7 strain employs SYBR green as the readout. This is a dye that binds to double stranded deoxyribonucleic acid (DNA) with a resulting increase in fluorescence, allowing detection of P. falciparum DNA in infected erythrocytes, and thereby providing a measure of parasite growth and propagation.
P. falciparum Culture Maintenance
Erythrocytes (A+ blood) were prepared for both parasite culture and assay by washing 4 times with incomplete media (15.9 g RPMI 1640 (25 mM HEPES, L-glutamine), 1 g NaHCO3, 2 g glucose, 400 μL gentacin (500 mg/mL), 2 mL hypoxanthine solution (13.6 g/L in 0.1M NaOH pH 7.3) in 1 litre of media). The cells were centrifuged at 1800 g for 5 minutes, before decanting the supernatant and re-suspending in fresh incomplete media. On the final wash, the cells were re-suspended in complete media (incomplete media with 5 g/L AlbumaxII), and centrifuged at 1800 g for 3 minutes. This cell sediment was treated as 100% haematocrit.
P. falciparum 3D7 was cultured in erythrocytes at 5% haematocrit in complete media at 37° C. (1% O2, 3% CO2, balance N2). Cultures were split on a weekly basis to achieve a 1% parasitaemia in erythrocites at 5% haematocrit in fresh media. Culture media is replaced by fresh media every other day (2 times during the week).
On day 1, test compounds were added to assay plates using Echo dispensing technology ([…] and 20 points titration). 50 nL of each compound dilution was added to 50 μL of culture (5% haematocrit, 0.5% parasitaemia) and incubated for 72 h at 37° C. (1% O2, 3% CO2, balance N2). Final concentrations of test compounds ranged from 50,000 nM to 15 nM, in […].
On day 4, 10 μL SYBR green (Invitrogen S7563 supplied as 10,000× concentrate in DMSO) pre-diluted to 3× concentrate with Lysis buffer (20 mM Tris pH 7.9, 5% EDTA, 0.16% w/v, 1.6% TX100 v/v) was added to the cultures and incubated in the dark, overnight, at room temperature.
On day 5, fluorescent signal was measured using a BioTek plate reader (excitation 485 nm, emission 528 nm). All data were processed using IDBS ActivityBase. Raw data were converted into percent inhibition through linear regression by setting the high inhibition control (mefloquine) as 100% and the no inhibition control (DMSO) as 0%. Quality control criteria for passing plates were as follows: Z′>0.5, S:B>3, 30% CV(no inhibition control)<15. The formula used to calculate Z′ is: […]
All EC50 curve fitting was undertaken using the following bi-phasic two site dose response using XLfit model 300 (IDBS):
where A=100 minus the top of the upper curve 1 and the bottom of lower curve; B=Hill slope; log(C)=IC50 concentration at lower site; log(D)=IC50 concentration at upper site; x=inhibitor concentration; and y=% inhibition.

[1] = Erythrocyte, P. falciparum 3D7 in human erythrocytes, 72 h incubation, SYBR green fluorescence, read-out: IC50

| Compound | IC50 (3D7, Erythrocyte, 72 h) [µM] | IC50 [1] [µM] |
| --- | --- | --- |
| C[C@@H]1C[C@H](N2C(=N)N[C@](C)(c3cccc(NC(=O)c4cc(C#N)cc(C(F)(F)F)c4)c3Cl)CC2=O)CCO1 (relative stereo) [Example 95, N-(2-Chloro-3-{(4S)-2-imino-4-methyl-1-[(2R*,4R*)-2-methyl-tetrahydropyran-4-yl]-6-oxo-hexahydropyrimidin-4-yl}phenyl)-3-cyano-5-(trifluoromethyl)-benzamide hydrochloride] | 0.034 |  |
| C[C@@H]1C[C@H](N2C(=N)N[C@](C)(c3cccc(NC(=O)c4ncc5ccccn45)c3Cl)CC2=O)CCO1 (relative stereo) [Example 65, N-(2-Chloro-3-{(4S)-2-imino-4-methyl-1-[(2R*,4R*)-2-methyl-tetrahydropyran-4-yl]-6-oxo-hexahydropyrimidin-4-yl]phenyl)-imidazo[1,5-a]pyridine-3-carboxamide hydrochloride] | 0.051 |  |
| Cc1ccnc(C(=O)Nc2cccc([C@]3(C)CC(=O)N([C@@H]4CCO[C@H](C)C4)C(=N)N3)c2Cl)n1 (relative stereo) [Example 78, N-(2-Chloro-3-{(4S)-2-imino-4-methyl-1-[(2R*,4R*)-2-methyl-tetrahydropyran-4-yl]-6-oxo-hexahydropyrimidin-4-yl}phenyl)-4-methylpyrimidine-2-carboxamide hydrochloride] | 0.027 |  |
| C[C@@H]1C[C@H](N2C(=N)N[C@](C)(c3cccc(NC(=O)c4ccc(C(F)(F)F)nn4)c3Cl)CC2=O)CCO1 (relative stereo) [Example 59, N-(2-Chloro-3-{(4S)-2-imino-4-methyl-1-[(2R*,4R*)-2-methyl-tetrahydropyran-4-yl]-6-oxo-hexahydropyrimidin-4-yl]phenyl)-6-(trifluoromethyl)pyridazine-3-carboxamide hydrochloride] | 0.114 |  |
| C[C@@H]1C[C@H](N2C(=N)N[C@](C)(c3cccc(NC(=O)c4ccccc4Cl)c3Cl)CC2=O)CCO1 (relative stereo) [Example 12, 2-Chloro-N-(2-chloro-3-{(4S)-2-imino-4-methyl-1-[(2R*,4R*)-2-methyltetrahydropyran-4-yl]-6-oxo-hexahydropyrimidin-4-yl}phenyl)-benzamide hydrochloride] | 0.023 |  |
| C[C@@H]1C[C@H](N2C(=N)N[C@](C)(c3cccc(NC(=O)c4ccc(F)c(F)c4)c3Cl)CC2=O)CCO1 (relative stereo) [Example 36, N-(2-Chloro-3-{(4S)-2-imino-4-methyl-1-[(2R*,4R*)-2-methyl-tetrahydropyran-4-yl]-6-oxo-hexahydropyrimidin-4-yl]phenyl)-3,4-difluorobenzamide trifluoroacetic acid salt] | 0.033 |  |
| C[C@@H]1C[C@H](N2C(=N)N[C@](C)(c3cccc(NC(=O)c4cc5cccc(F)c5o4)c3Cl)CC2=O)CCO1 (relative stereo) [Example 44, N-(2-Chloro-3-{(4S)-2-imino-4-methyl-1-[(2R*,4R*)-2-methyl-tetrahydropyran-4-yl]-6-oxo-hexahydropyrimidin-4-yl]phenyl)-7-fluorobenzofuran-2-carboxamide trifluoroacetic acid salt] | 0.02 |  |
| C[C@@H]1C[C@H](N2C(=N)N[C@](C)(c3cccc(NC(=O)c4ccc(F)c(Cl)c4F)c3Cl)CC2=O)CCO1 (relative stereo) [Example 71, 3-Chloro-N-(2-chloro-3-{(4S)-2-imino-4-methyl-1-[(2R*,4R*)-2-methyltetrahydropyran-4-yl]-6-oxo-hexahydropyrimidin-4-yl}phenyl)-2,4-difluorobenzamide hydrochloride] | 0.026 |  |
| C[C@@H]1C[C@H](N2C(=N)N[C@](C)(c3cccc(NC(=O)c4nccn5ccnc45)c3Cl)CC2=O)CCO1 (relative stereo) [Example 48, N-(2-Chloro-3-{(4S)-2-imino-4-methyl-1-[(2R*,4R*)-2-methyl-tetrahydropyran-4-yl]-6-oxo-hexahydropyrimidin-4-yl}phenyl)-imidazo[1,2-alpyrazine-8-carboxamidetrifluoroacetic acid salt] |  | 0.055 |
| C[C@@H]1C[C@H](N2C(=N)N[C@](C)(c3cccc(NC(=O)c4ccn(C)n4)c3Cl)CC2=O)CCO1 (relative stereo) [Example 8, N-(2-Chloro-3-{(4S)-2-imino-4-methyl-1-[(2R*,4R*)-2-methyl-tetrahydropyran-4-yl]-6-oxo-hexahydropyrimidin-4-yl}phenyl)-1-methylpyrazole-3-carboxamide hydrochloride] | 0.26 |  |
| C[C@@H]1C[C@H](N2C(=N)N[C@](C)(c3cccc(NC(=O)c4ccccc4F)c3Cl)CC2=O)CCO1 (relative stereo) [Example 35, N-(2-Chloro-3-{(4S)-2-imino-4-methyl-1-[(2R*,4R*)-2-methyl-tetrahydropyran-4-yl]-6-oxo-hexahydropyrimidin-4-yl}phenyl)-2-fluorobenzamide trifluoroacetic acid salt] | 0.011 |  |
| C[C@@H]1C[C@H](N2C(=N)N[C@](C)(c3cccc(NC(=O)c4cc(C#N)ccn4)c3Cl)CC2=O)CCO1 (relative stereo) [Example 75, N-(2-Chloro-3-{(4S)-2-imino-4-methyl-1-[(2R*,4R*)-2-methyl-tetrahydropyran-4-yl]-6-oxo-hexahydropyrimidin-4-yl}phenyl)-4-cyanopyridine-2-carboxamide hydrochloride] | 0.02 |  |
| COc1ccncc1C(=O)Nc1cccc([C@]2(C)CC(=O)N([C@@H]3CCO[C@H](C)C3)C(=N)N2)c1Cl (relative stereo) [Example 45, N-(2-Chloro-3-{(4S)-2-imino-4-methyl-1-[(2R*,4R*)-2-methyl-tetrahydropyran-4-yl]-6-oxo-hexahydropyrimidin-4-yl]phenyl)-4-methoxypyridine-3-carboxamide trifluoroacetic acid salt] | 0.156 |  |
| C[C@@H]1C[C@H](N2C(=N)N[C@](C)(c3cccc(NC(=O)c4cccc(-n5ccnc5)c4)c3Cl)CC2=O)CCO1 (relative stereo) [Example 105, N-(2-Chloro-3-{(4S)-2-imino-4-methyl-1-[(2R*,4R*)-2-methyl-tetrahydropyran-4-yl]-6-oxo-hexahydropyrimidin-4-yl]phenyl)-3-(imidazol-1-yl)benzamide hydrochloride] | 0.044 |  |
| COc1ccc(F)cc1C(=O)Nc1cccc([C@]2(C)CC(=O)N([C@@H]3CCO[C@H](C)C3)C(=N)N2)c1Cl (relative stereo) [Example 87, N-(2-Chloro-3-{(4S)-2-imino-4-methyl-1-[(2,R*,4R*)-2-methyl-tetrahydropyran-4-yl]-6-oxo-hexahydropyrimidin-4-yl}phenyl)-5-fluoro-2-methoxybenzamide trifluoroacetic acid salt] |  | 0.018 |
| C[C@@H]1C[C@H](N2C(=N)N[C@](C)(c3cccc(NC(=O)c4cccc(Cl)c4F)c3Cl)CC2=O)CCO1 (relative stereo) [Example 97, 3-Chloro-N-(2-chloro-3-{(4S)-2-imino-4-methyl-1-[(2R* ,4R*)-2-methyltetrahydropyran-4-yl]-6-oxo-hexahydropyrimidin-4-yl]phenyl)-2-fluorobenzamide hydrochloride] | 0.021 |  |

Reference: patent US20220289685A1, “ANTIMALARIAL HEXAHYDROPYRIMIDINE ANALOGUES” (UCB BIOPHARMA SRL, priority 2019, published 2022)
